The target in assay [1] is T1, Equilibrative nucleoside transporter 1 (Homo sapiens, UniProt Q99808).
T1 sequence (Q99808 whole entry): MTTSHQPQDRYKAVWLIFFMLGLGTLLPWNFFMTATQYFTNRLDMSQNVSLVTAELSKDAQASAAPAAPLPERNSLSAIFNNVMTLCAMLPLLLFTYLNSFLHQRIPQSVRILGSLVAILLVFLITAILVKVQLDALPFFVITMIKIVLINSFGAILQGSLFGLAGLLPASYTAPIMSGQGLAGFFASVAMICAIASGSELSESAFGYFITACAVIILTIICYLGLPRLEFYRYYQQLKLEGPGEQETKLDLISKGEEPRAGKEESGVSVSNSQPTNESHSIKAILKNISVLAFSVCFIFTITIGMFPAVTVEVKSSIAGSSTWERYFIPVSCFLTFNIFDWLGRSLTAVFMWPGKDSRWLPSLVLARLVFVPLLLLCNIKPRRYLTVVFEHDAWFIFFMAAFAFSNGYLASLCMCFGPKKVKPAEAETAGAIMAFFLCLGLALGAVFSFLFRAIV

The target of assay [2] is T2, Muscarinic acetylcholine receptor M2 (Homo sapiens, UniProt P08172).
T2 sequence (P08172 whole entry): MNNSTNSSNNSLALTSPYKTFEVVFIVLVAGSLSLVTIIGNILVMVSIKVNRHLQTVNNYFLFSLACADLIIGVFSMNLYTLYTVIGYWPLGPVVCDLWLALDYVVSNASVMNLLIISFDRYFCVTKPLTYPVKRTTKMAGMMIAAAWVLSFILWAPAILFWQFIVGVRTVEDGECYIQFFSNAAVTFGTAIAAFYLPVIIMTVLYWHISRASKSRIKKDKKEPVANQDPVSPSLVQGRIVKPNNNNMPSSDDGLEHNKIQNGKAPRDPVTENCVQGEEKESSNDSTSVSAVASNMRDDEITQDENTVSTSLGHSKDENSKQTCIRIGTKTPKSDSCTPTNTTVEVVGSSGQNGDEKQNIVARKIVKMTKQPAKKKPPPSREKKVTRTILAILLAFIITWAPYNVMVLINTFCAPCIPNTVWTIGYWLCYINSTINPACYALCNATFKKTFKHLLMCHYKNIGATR
It is filed as functional, cell-based.

In assay [3] the target is T3, Adenosine receptor A1 (Homo sapiens, UniProt P30542).
T3 sequence (P30542 whole entry): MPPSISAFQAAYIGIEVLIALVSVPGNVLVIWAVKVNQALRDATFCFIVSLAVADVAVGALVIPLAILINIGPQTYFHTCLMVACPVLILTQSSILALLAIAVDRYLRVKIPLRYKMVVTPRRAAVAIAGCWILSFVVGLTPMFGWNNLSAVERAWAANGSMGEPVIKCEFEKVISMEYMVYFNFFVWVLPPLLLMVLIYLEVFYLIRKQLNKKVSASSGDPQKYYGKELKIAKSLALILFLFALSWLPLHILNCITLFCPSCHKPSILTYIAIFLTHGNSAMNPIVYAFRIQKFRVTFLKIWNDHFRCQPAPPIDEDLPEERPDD

For assay [4], the target named is Delta-type opioid receptor (Homo sapiens, UniProt P41143).
Delta-type opioid receptor, sequence (P41143 whole entry): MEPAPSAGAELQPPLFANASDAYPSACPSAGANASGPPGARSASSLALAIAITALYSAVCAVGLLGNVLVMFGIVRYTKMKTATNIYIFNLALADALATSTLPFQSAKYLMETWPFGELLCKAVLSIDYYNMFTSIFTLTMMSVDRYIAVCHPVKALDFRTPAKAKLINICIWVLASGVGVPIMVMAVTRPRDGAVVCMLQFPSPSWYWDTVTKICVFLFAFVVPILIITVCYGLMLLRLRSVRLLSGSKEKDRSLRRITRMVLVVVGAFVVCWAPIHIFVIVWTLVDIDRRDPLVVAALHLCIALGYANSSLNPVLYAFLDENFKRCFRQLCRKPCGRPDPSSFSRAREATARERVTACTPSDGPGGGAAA
Assay [5] deals with T4, Cholecystokinin receptor type A (Homo sapiens, UniProt P32238).
T4 sequence (P32238 whole entry): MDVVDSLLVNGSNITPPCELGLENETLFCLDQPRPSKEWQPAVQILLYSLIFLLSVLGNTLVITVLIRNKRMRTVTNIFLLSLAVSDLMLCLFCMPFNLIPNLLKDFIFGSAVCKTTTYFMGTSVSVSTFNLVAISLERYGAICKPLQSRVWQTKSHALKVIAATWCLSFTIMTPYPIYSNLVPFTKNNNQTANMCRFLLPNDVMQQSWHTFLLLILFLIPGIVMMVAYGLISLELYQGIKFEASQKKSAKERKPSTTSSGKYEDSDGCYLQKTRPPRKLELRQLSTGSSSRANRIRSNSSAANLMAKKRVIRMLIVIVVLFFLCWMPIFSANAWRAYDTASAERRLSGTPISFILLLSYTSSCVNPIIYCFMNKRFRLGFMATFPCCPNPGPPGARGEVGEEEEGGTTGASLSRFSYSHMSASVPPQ

Assay [6] concerns the target T5, Type-1 angiotensin II receptor (Homo sapiens, UniProt P30556).
T5 sequence (P30556 whole entry): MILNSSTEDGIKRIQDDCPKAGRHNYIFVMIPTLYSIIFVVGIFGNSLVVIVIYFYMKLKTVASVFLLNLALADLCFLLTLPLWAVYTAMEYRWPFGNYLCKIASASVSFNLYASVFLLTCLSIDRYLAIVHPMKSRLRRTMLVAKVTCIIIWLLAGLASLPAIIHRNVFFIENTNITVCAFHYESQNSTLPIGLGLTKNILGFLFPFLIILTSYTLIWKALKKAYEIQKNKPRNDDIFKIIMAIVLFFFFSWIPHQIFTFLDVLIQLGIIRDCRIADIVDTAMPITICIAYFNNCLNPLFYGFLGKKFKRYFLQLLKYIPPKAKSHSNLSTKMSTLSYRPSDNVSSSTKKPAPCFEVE

Assay [7] addresses Neuronal acetylcholine receptor subunit alpha-4 (Homo sapiens, UniProt P43681).
For assay [8], the target named is T6, 5-hydroxytryptamine receptor 3A (Homo sapiens, UniProt P46098).
T6 sequence (P46098 whole entry): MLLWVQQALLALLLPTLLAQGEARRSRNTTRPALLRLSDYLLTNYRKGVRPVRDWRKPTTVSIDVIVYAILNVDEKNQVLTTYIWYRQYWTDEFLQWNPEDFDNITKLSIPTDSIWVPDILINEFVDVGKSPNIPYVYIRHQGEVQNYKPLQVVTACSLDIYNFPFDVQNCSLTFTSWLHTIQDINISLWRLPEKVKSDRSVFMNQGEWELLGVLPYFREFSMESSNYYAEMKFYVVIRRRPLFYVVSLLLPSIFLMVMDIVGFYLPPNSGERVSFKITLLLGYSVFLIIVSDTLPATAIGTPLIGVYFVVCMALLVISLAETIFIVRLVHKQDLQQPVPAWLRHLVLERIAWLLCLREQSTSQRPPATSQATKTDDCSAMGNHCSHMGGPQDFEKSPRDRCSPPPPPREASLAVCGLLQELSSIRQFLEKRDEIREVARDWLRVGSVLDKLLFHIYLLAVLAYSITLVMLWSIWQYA
It is filed as functional.

A value given as a limit tells only on which side of the number the result lay.
Also: assay procedure not described here.

Neuronal acetylcholine receptor subunit alpha-4, sequence (P43681 whole entry): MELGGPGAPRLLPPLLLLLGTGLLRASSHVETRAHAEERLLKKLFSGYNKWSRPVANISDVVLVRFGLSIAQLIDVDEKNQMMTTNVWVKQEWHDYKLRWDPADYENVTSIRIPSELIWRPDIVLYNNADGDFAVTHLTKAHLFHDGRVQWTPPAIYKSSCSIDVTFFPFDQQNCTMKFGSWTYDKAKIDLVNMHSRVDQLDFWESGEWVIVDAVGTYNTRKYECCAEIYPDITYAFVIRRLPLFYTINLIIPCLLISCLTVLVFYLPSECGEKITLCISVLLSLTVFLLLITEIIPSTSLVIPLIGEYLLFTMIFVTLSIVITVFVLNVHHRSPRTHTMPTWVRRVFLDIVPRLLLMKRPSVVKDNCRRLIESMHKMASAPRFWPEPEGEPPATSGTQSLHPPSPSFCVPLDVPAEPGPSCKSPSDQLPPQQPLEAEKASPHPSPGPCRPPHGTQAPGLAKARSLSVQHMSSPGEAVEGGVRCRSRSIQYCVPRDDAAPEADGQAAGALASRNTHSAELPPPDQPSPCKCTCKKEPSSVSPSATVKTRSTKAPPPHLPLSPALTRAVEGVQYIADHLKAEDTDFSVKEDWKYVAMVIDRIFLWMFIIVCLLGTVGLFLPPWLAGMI

For the compound `CNS(=O)(=O)Cc1ccc2[nH]cc(CCN(C)C)c2c1`, the AC50 in assay [1], in assay [2], in assay [3], in assay [4], in assay [5] and in assay [6] was greater than 30 µM each time.
For `CC=CC(=O)N(CC)c1ccccc1C`, the AC50 – broadly, the concentration giving half of the maximal activity seen – is greater than 10 µM in assay [7]; greater than 30 µM in assay [8]; greater than 10 µM in assay [1]; greater than 10 µM in assay [2]; greater than 10 µM in assay [3]; greater than 30 µM in assay [4]. Moreover, the AC50 in assay [5] and in assay [6] was greater than 10 µM in each case.
Regarding `NCC[C@H](O)C(=O)N[C@@H]1C[C@H](N)[C@@H](O[C@H]2O[C@H](CN)[C@@H](O)[C@H](O)[C@H]2O)[C@H](O)[C@H]1O[C@H]1O[C@H](CO)[C@@H](O)[C@H](N)[C@H]1O` [AMIKACIN], the AC50 was greater than 10 µM in assay [7]; greater than 30 µM in assay [8]; greater than 10 µM in assay [1]; greater than 10 µM in assay [2]; greater than 10 µM in assay [3]; greater than 30 µM in assay [4]. Further, the AC50 in assay [5] and in assay [6] was greater than 10 µM throughout.
As to `CCOC(=O)OC(C)OC1=C(C(=O)Nc2ccccn2)N(C)S(=O)(=O)c2ccccc21` (stereo not drawn) [AMPIROXICAM], the AC50 in assay [7], in assay [8], in assay [1], in assay [2], in assay [3] and in assay [4] was greater than 30 µM throughout. The AC50 in assay [5] and in assay [6] was greater than 30 µM in each case.
On to `C#C[C@]1(O)CC[C@H]2[C@@H]3CCC4=Cc5oncc5C[C@]4(C)[C@H]3CC[C@@]21C` [DANAZOL], for which the concentration at half-maximal activity (AC50) in assay [7] is greater than 10 µM; in assay [1] it was greater than 10 µM; in assay [2], greater than 10 µM; in assay [3] it was greater than 30 µM; in assay [4], greater than 30 µM; in assay [5], greater than 10 µM. In assay [6], the AC50 is greater than 10 µM.
On to `Cn1c(=O)c2c(ncn2CC2OCCO2)n(C)c1=O` [DOXOFYLLINE], for which the concentration at half-maximal activity (AC50) in assay [7], in assay [8], in assay [1], in assay [2], in assay [3] and in assay [4] was greater than 30 µM each time. Besides, the AC50 in assay [5] and in assay [6] was greater than 30 µM throughout.
As to `Cc1ccc(S(=O)(=O)NC(=O)NN2CC3CCCC3C2)cc1` (stereo not drawn) [GLICLAZIDE], the AC50 in assay [7] is greater than 10 µM; in assay [8] it was greater than 30 µM; in assay [1] it was greater than 10 µM; in assay [2], greater than 10 µM; in assay [3], greater than 10 µM; in assay [4] it was greater than 30 µM. The AC50 in assay [5] and in assay [6] was greater than 10 µM each time.
As to `CC(C)Cn1cnc2c(N)nc3ccccc3c21` [IMIQUIMOD], the AC50 was greater than 10 µM in assay [7]; greater than 30 µM in assay [8]; greater than 30 µM in assay [1]; greater than 10 µM in assay [2]; greater than 10 µM in assay [3]; greater than 30 µM in assay [4]. For the same compound, the AC50 in assay [5] and in assay [6] was greater than 10 µM in each case.
Consider `Nc1nc(N)nc(-c2cc(Cl)ccc2Cl)n1` [IRSOGLADINE], for which the AC50 in assay [7], in assay [2], in assay [3], in assay [5] and in assay [6] was greater than 30 µM each time.
For `CNC(C)CCC=C(C)C` (stereo not drawn) [ISOMETHEPTENE], the AC50 in assay [7], in assay [1], in assay [3], in assay [5] and in assay [6] was greater than 30 µM throughout.
Take `C[C@](N)(Cc1ccc(O)c(O)c1)C(=O)O` [METHYLDOPA]: the half-maximal activity concentration (AC50) in assay [7] is greater than 10 µM; in assay [8] it was greater than 30 µM; in assay [1], greater than 10 µM; in assay [2], greater than 10 µM; in assay [3], greater than 30 µM; in assay [4], greater than 30 µM. The AC50 in assay [5] and in assay [6] was greater than 10 µM in each case.
`O=C(NCCN1CCOCC1)c1ccc(Cl)cc1` [MOCLOBEMIDE]: the AC50 in assay [7] was greater than 10 µM; in assay [8], greater than 30 µM; in assay [1], greater than 10 µM; in assay [2], greater than 10 µM; in assay [3], greater than 10 µM; in assay [4], greater than 30 µM. The AC50 in assay [5] and in assay [6] was greater than 10 µM throughout.
As to `CCCN(CCC)C(=O)C(CCC(=O)O)NC(=O)c1ccccc1` (stereo not drawn) [PROGLUMIDE], the AC50 in assay [7] was greater than 30 µM; in assay [8], greater than 30 µM; in assay [1] it was greater than 30 µM; in assay [2], greater than 10 µM; in assay [3], greater than 30 µM; in assay [4] it was greater than 30 µM. Besides, the AC50 in assay [5] and in assay [6] was greater than 30 µM each time.
For the compound `C[C@]12CC[C@H]3[C@@H](CCC4=CC(=O)CC[C@@]43C)[C@@H]1CC[C@@H]2O` [TESTOSTERONE], the AC50 is greater than 10 µM in assay [7]; greater than 30 µM in assay [8]; greater than 10 µM in assay [1]; greater than 10 µM in assay [2]; greater than 10 µM in assay [3]; greater than 30 µM in assay [4]. Besides, the AC50 in assay [5] and in assay [6] was greater than 10 µM in each case.
Regarding `CN1CCN(CC/C=C2/c3ccccc3Sc3ccc(S(=O)(=O)N(C)C)cc32)CC1` [THIOTHIXENE], the AC50 in assay [8] is 1.6 µM; in assay [1], greater than 30 µM; in assay [2], greater than 10 µM; in assay [3], greater than 30 µM; in assay [4], greater than 10 µM; in assay [5], greater than 30 µM. The compound also displayed an AC50 in assay [6] greater than 30 µM.
As to `CN1C(=O)OC(C)(C)C1=O` [TRIMETHADIONE], the AC50 in assay [7] is greater than 10 µM; in assay [8] it was greater than 30 µM; in assay [1], greater than 10 µM; in assay [2], greater than 10 µM; in assay [3] it was greater than 10 µM; in assay [4], greater than 30 µM. Further, the AC50 in assay [5] and in assay [6] was greater than 10 µM each time.

Values taken from ChEMBL document CHEMBL5291721, “A preclinical secondary pharmacology resource illuminates target-adverse drug reaction associations of marketed drugs” (Nat Commun, 2023).
